Measurements taken from the CheMixHub viscosity set.
Several values for one entry are separate records, joined by “and”; a condition that tells them apart may be missing. Equal entries are not always repeated. ± gives the uncertainty stated by the source. Each block holds one compound with its values, some of them ahead of it.

SMILES: CCC#N
viscosity (298.15 K, 101 kPa): 0.42 ± 0.01 mPa·s
viscosity (303.15 K, 101 kPa): 0.41 ± 0.01 mPa·s
viscosity (303.15 K, 101.33 kPa): 0.3886 ± 0.0035 mPa·s
viscosity (308.15 K, 101 kPa): 0.39 ± 0.01 mPa·s
viscosity (313.15 K, 101 kPa): 0.37 ± 0.01 mPa·s
viscosity (318.15 K, 101 kPa): 0.36 ± 0.01 mPa·s
viscosity (323.15 K, 101 kPa): 0.31 ± 0.01 mPa·s

viscosity (298.15 K, 101.3 kPa): 12.23 ± 0.76 mPa·s
SMILES: CCCCCCC(=O)[O-].CC[NH+](C(C)C)C(C)C

viscosity (298.15 K, 101.33 kPa): 1.324 ± 0.017 mPa·s
viscosity (298.15 K, 103 kPa): 1.291 ± 0.041 mPa·s
viscosity (307.52 K, 101.3 kPa): 1.159 ± 0.014 mPa·s
viscosity (307.57 K, 101.3 kPa): 1.159 ± 0.014 mPa·s
viscosity (308.15 K, 103 kPa): 1.086 ± 0.041 mPa·s
viscosity (313.15 K, 101 kPa): 1.039 ± 0.026 mPa·s
viscosity (313.15 K, 101.33 kPa): 1.025 ± 0.026 mPa·s
viscosity (318.15 K, 100 kPa): 0.986 ± 0.13 mPa·s
viscosity (318.15 K, 101.33 kPa): 0.935 ± 0.012 mPa·s
viscosity (318.15 K, 103 kPa): 0.936 ± 0.041 mPa·s
viscosity (323.15 K, 101 kPa): 0.898 ± 0.023 mPa·s
SMILES: CCCCCCCCCCCC
viscosity (298.15 K, 101 kPa): 1.34 ± 0.06 mPa·s and 1.338 ± 0.012 mPa·s and 1.336 ± 0.032 mPa·s
viscosity (303.15 K, 101.33 kPa): 1.215 ± 0.03 mPa·s and 1.209 ± 0.027 mPa·s
viscosity (308.15 K, 100 kPa): 1.115 ± 0.11 mPa·s and 1.157 ± 0.014 mPa·s
viscosity (308.15 K, 101 kPa): 1.112 ± 0.014 mPa·s and 1.125 ± 0.028 mPa·s
viscosity (318.15 K, 101 kPa): 0.935 ± 0.012 mPa·s and 0.965 ± 0.024 mPa·s
viscosity (323.15 K, 100 kPa): 0.9146 ± 0.037 mPa·s and 0.921 ± 0.13 mPa·s
viscosity (323.15 K, 102 kPa): 0.917 ± 0.021 mPa·s (2×) and 0.919 ± 0.021 mPa·s

SMILES: COC=O
viscosity (298.15 K, 101.33 kPa): 0.328 ± 0.003 mPa·s

SMILES: Cc1ccc(N)cc1
viscosity (313.05 K, 101 kPa): 2.08 ± 0.02 mPa·s
viscosity (323.1 K, 101 kPa): 1.8 ± 0.036 mPa·s

viscosity (313.1 K, 101 kPa): 0.402 ± 0.017 mPa·s
SMILES: Cl[Si](Cl)(Cl)Cl
viscosity (303.1 K, 101 kPa): 0.462 ± 0.019 mPa·s and 0.442 ± 0.018 mPa·s

SMILES: c1ccc(Oc2ccccc2)cc1
viscosity (303.15 K, 101 kPa): 3.3 ± 0.14 mPa·s and 3.051 ± 0.065 mPa·s
viscosity (308.15 K, 101 kPa): 2.92 ± 0.12 mPa·s
viscosity (313.15 K, 101 kPa): 2.61 ± 0.11 mPa·s
